Structures are written as SMILES. Values joined by “and” are separate entries in the source; they are usually repeats but may differ in a detail not shown here. Equal entries are not always repeated.

Test [1] concerns C57BL/6 mice transplanted with BALB/c hearts. Description: Murine heterotopic heart transplant model. The class given is in vivo, mouse. The method, then: The immunosuppressive potential of […] was tested on a heterotopic heart transplant model; hearts of BALB/c mice were transplanted into the abdominal cavity of C57BL/6 mice.
The beats of the heart were measured, twice weekly, by palpation; stopping of beating was regarded as a sign of transplant rejection.
Three different protocols were used for prolonging transplant survival times: the “short-term” protocol ([…] 9 mg/kg daily for 14 days), the “long-term” protocol ([…] 9 mg/kg every day until rejection), and the “Combo” protocol ([…] on alternate days: day 0, 2, 4, 6, 8, 10, 12, 14+Rapamycin 0.1 mg/kg from day 0 to day 10).
In the acute heart transplant models, the hearts of BALB/c were transplanted into the peritoneal cavity of C57BL/6 mice. The control mice invariably reject the transplant in 10 days (Ctrl: MST=7 days, n=12), (FIG. 26). The “short-term” protocol permitted indefinite survival (100 days) in 10 mice out of 12 (n=12; p=0.0001 vs. Ctrl), (FIG. 26). Similarly, the “long-term” protocol permitted indefinite survival in 8 mice out of 10 (n=10; p=0.002 vs Ctrl), and prolonged survival in the remaining 2 (16 days and 25 days; p=0.002 vs. Ctrl), (FIG. 26).
The histological sections of the hearts on day 7 of BALB/c mice, transplanted into a C57BL/6 host, and treated with the “short-term” protocol, were also analysed.

The next test has as its system U937 cells. Description: Secretion of pro-inflammatory cytokines by LPS-stimulated U937 cells (ELISA). The class given is cell-based, human. Conditions: drug with LPS (12 hrs) or added after LPS for 2 or 6 hours, FIG. 1. The method, then: The production in vitro of MCP-1 (monocyte chemoattractant protein-1), TNF-α (tumour necrosis factor alpha), IL-6 (interleukin 6) was analysed. These cytokines induce the production of other cytokines that attract leukocytes to the site of inflammation, potentiating the immune response. This amplifies leukocyte “recruitment” at the site of inflammation, promoting “extravasation” of immune cells from the peripheral circulation.
The U937 cells were plated at a density of 250 000 cells/ml and left in quiescence for 24 hours.
The drug was added in fresh medium, simultaneously or after removal of LPS from the culture. The cells were kept in an incubator at 37° C. with supply of CO2 at 5%.
Analysis of the production of growth factors was performed on the cellular supernatants collected, by ELISA assay using commercial kits (Human TNF-α Quantikine ELISA Kit code DTA00C, R&D Systems assay. Human IL-6 Quantikine ELISA Kit code D6050, R&D Systems assay. Human CCL2/MCP-1 Quantikine ELISA Kit code DCP00, R&D Systems assay).

As for `C=C(C=O)OC(C=O)n1cnc2c(N)ncnc21` (stereo not shown) [2-[1-(6-aminopurin-9-yl)-2-oxoethoxy]prop-2-enal], the “prolonged survival in the remaining 2 mice” value in test [1] (long-term protocol) is 16 days and 25 days. Further, in test [1] (short-term protocol, day 7), the anti-FoxP3 labelling entry is on record as “did not show significant differences”, the “lymphocyte tissue infiltration (haematoxylin-eosin)” value is reported as “absent” and the “presence of mature macrophages” value was “completely inhibited”. Moreover, the “B and T lymphocytes (anti-B220, anti-CD3)” value in test [1] (short-term protocol, day 7, vs controls) is on record as “appear to decrease numerically”. This compound registered a vasculopathy score in test [1] (short-term protocol, Ctrl=2.0±0.003, p=0.007, FIG. 28C) of 0.3±0.3. The “score of degree of infiltration” value in test [1] (short-term protocol, Ctrl=2.7±0.3, p=0.01, FIG. 28B) is given as 0.7±0.3. Besides, in the test with U937 cells, the “cellular secretion of IL-6” value is recorded as “reduces the cellular secretion”, the “cellular secretion of MCP-1” value is recorded as “reduces the cellular secretion” and the “cellular secretion of TNF-α” value is “reduces the cellular secretion”.

These data come from patent publication US20160129005A1, “ADENINE DERIVATIVES HAVING IMMUNOMODULATING ANTI-INFLAMMATORY AND ANALGESIC ACTIVITY” (MEDESTEA RESEARCH & PRODUCTION S.p.A., priority 2011, published 2016).
